Assay results reported in ChEMBL document CHEMBL3091441, “Ligand modifications to reduce the relative resistance of multi-drug resistant HIV-1 protease” (Bioorg Med Chem, 2013).
*1 amine or outer side, *2 acyl side, *3 side chain or, on linkers, in order; H or OH if unused. Where a SMILES comes first, the peptide text is derived from it. Side-chain parts run from the residue outwards. [ ]: non-standard residue; d: D form. N(2S-amino-4-Me-pentyl)Phe = CC(C)C[C@@H](CN([C@@H](Cc1ccccc1)C(=O)[*:2])[*:1])N[*:3]; N(2S-NH-3-Ph-propyl)Phe = O=C([C@H](Cc1ccccc1)N(C[C@H](Cc1ccccc1)N[*:3])[*:1])[*:2]; Nle = CCCC[C@H](N)C(=O)O

Columns and labels:
Protease = Protease (Human immunodeficiency virus 1, UniProt Q9YQ12); assay: Inhibition of HIV-1 NL4-3 wild type protease expressed in Escherichia coli preincubated for 20 mins by FRET analysis
[1] = Inhibition of HIV-1 multidrug-resistant protease 769 preincubated for 20 mins by FRET analysis; parameters: species or system Human immunodeficiency virus 1
[2] = system: Human immunodeficiency virus 1; assay: Ratio of IC50 for HIV-1 multidrug-resistant protease 769 to IC50 for HIV-1 NL4-3 wild type protease

Sequence of Protease (Q9YQ12 whole entry): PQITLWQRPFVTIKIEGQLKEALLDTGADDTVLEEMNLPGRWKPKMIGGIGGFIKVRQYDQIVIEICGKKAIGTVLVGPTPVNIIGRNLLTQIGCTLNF

Structure (SMILES): Cc1cccc(C)c1OCC(=O)N[C@@H](Cc1ccccc1)[C@@H](O)C[C@H](CC(C)C)NC(=O)[C@H](C(C)C)N1CCCNC1=O
- IC50 (Protease): 2.1 nM
- IC50 [1]: 6.8 nM
- Ratio IC50 [2]: 3.2

Structure (SMILES): CCCC[C@H](NC(=O)CNC(=O)[C@H](CCC(=O)O)NC(=O)[C@H](Cc1ccccc1)NC[C@H](Cc1ccccc1)NC(=O)[C@@H](NC(=O)[C@@H](N)CCCNC(=N)N)C(C)C)C(=O)O (H-[N(2S-NH-3-Ph-propyl)Phe]([Val-Arg])EG[Nle]-OH)
- IC50 (Protease): 30.7 nM
- IC50 [1]: 142 nM
- Ratio IC50 [2]: 4.6

Structure (SMILES): CCCC[C@H](NC(=O)CNC(=O)[C@H](CCC(=O)O)NC(=O)[C@H](Cc1ccccc1)NC[C@H](CC(C)C)NC(=O)[C@@H](NC(=O)[C@@H](N)CCCNC(=N)N)C(C)C)C(=O)O (H-[N(2S-amino-4-Me-pentyl)Phe]([Val-Arg])EG[Nle]-OH)
- IC50 (Protease): 2.6 nM
- IC50 [1]: 4.4 nM
- Ratio IC50 [2]: 1.7

Structure (SMILES): Cc1cccc(C)c1OCC(=O)N[C@@H](Cc1ccccc1)[C@@H](O)C[C@H](Cc1ccccc1)NC(=O)[C@H](C(C)C)N1CCCNC1=O [LOPINAVIR]
- IC50 [1]: 16 nM
